What all share (experiment): relative viability (nuclei count vs DMSO), 5 days (fraction); higher = more cells survive
Compound in one test: Cc1cnc(CNC(=O)c2c(=O)c3ccc(N4CCCN(C)CC4)nc3n3c2sc2ccccc23)cn1 [CX-5461]
The procedure, abridged: (§1)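 Following overnight incubation at 37 °C, lung cancer cell lines in 1536-well plates were pinned with five library-drug doses (not always all listed) in √10 steps on vehicle-anchored plates. The cells then spent 5 days without medium change before a combined fix, permeabilisation and Hoechst stain, 4× imaging and MetaXpress nuclear counts. Viability is the treated-to-vehicle ratio of nuclei, taken as the median across plates. Only plates with control CV below 25% and at least one doubling passed.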

Compound in the next test: O=C(Nc1cc(C(F)(F)F)cc(C(F)(F)F)c1)c1cc(Cl)ccc1O [IMD-0354]
The procedure, abridged:
as §1

Compound in the test “CX-5461 + Alpelisib”: Cc1cnc(CNC(=O)c2c(=O)c3ccc(N4CCCN(C)CC4)nc3n3c2sc2ccccc23)cn1 [CX-5461] + Cc1nc(NC(=O)N2CCC[C@H]2C(N)=O)sc1-c1ccnc(C(C)(C)C(F)(F)F)c1 [Alpelisib] (partner 2 µM)
The procedure, abridged: (§2)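 Five library-drug doses in √10 steps were combined with a fixed anchor-drug dose, or a single drug was given alone, by pin tool to lung cancer cell lines in 1536-well plates the day after seeding. Nuclei were stained and counted after 5 days. Relative viability is the nuclei count in treated wells over that in vehicle wells, taken as the median of duplicate plates.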

Compound in the test “IMD-0354 + Pemetrexed”: O=C(Nc1cc(C(F)(F)F)cc(C(F)(F)F)c1)c1cc(Cl)ccc1O [IMD-0354] + Nc1nc2[nH]cc(CCc3ccc(C(=O)N[C@@H](CCC(=O)O)C(=O)O)cc3)c2c(=O)[nH]1 [Pemetrexed] (partner 0.2 µM)
The procedure, abridged:
as §2

HCC-44: the relative viability in the test with CX-5461 (0.01 µM) stood at 0.956; in the test with CX-5461 (0.03162 µM), 0.998; with CX-5461 (0.1 µM), 0.964; with CX-5461 (0.3162 µM), 0.98; in the test with CX-5461 (1 µM), 0.839; in the test with IMD-0354 (0.04 µM), 0.967. Besides, the relative viability stood at 1.03 with IMD-0354 (0.1265 µM); 0.497 in the test with IMD-0354 (0.4 µM); 0.301 in the test with IMD-0354 (1.265 µM); 0.194 with IMD-0354 (4 µM); 0.752 with CX-5461 + Alpelisib (first compound 0.01 µM); 0.991 with CX-5461 + Alpelisib (first compound 0.03162 µM). Further, the relative viability with CX-5461 + Alpelisib (first compound 0.1 µM) came to 0.839; with CX-5461 + Alpelisib (first compound 0.3162 µM) it was 0.827; with CX-5461 + Alpelisib (first compound 1 µM), 0.753; with IMD-0354 + Pemetrexed (first compound 0.04 µM) it was 0.733; with IMD-0354 + Pemetrexed (first compound 0.1265 µM), 0.692; with IMD-0354 + Pemetrexed (first compound 0.4 µM) it was 0.595. The results for the relative viability in the test with IMD-0354 + Pemetrexed (first compound 1.265 µM) and with IMD-0354 + Pemetrexed (first compound 4 µM) were 0.354 and 0.344, respectively.
As for HCC-78, the relative viability stood at 1.01 with CX-5461 (0.01 µM); 0.879 with CX-5461 (0.03162 µM); 0.941 in the test with CX-5461 (0.1 µM); 0.907 with CX-5461 (0.3162 µM); 0.902 in the test with CX-5461 (1 µM); 0.988 with IMD-0354 (0.04 µM). In addition, the relative viability with IMD-0354 (0.1265 µM) turned out to be 0.989; with IMD-0354 (0.4 µM) it was 0.579; with IMD-0354 (1.265 µM), 0.586; with IMD-0354 (4 µM) it was 0.487; in the test with CX-5461 + Alpelisib (first compound 0.01 µM) it was 0.338; in the test with CX-5461 + Alpelisib (first compound 0.03162 µM), 0.328. In addition, the relative viability in the test with CX-5461 + Alpelisib (first compound 0.1 µM) turned out to be 0.348; with CX-5461 + Alpelisib (first compound 0.3162 µM) it was 0.263; with CX-5461 + Alpelisib (first compound 1 µM), 0.334; with IMD-0354 + Pemetrexed (first compound 0.04 µM), 0.972; with IMD-0354 + Pemetrexed (first compound 0.1265 µM), 0.885; with IMD-0354 + Pemetrexed (first compound 0.4 µM), 0.637. The relative viability was 0.96 with IMD-0354 + Pemetrexed (first compound 1.265 µM) and 0.902 in the test with IMD-0354 + Pemetrexed (first compound 4 µM).
For the cell line HCC-366, the relative viability with CX-5461 (0.01 µM) was determined as 1.11; with CX-5461 (0.03162 µM), 1.02; with CX-5461 (0.1 µM), 1; with CX-5461 (0.3162 µM), 1.02; in the test with CX-5461 (1 µM), 0.322; in the test with IMD-0354 (0.04 µM), 1.04. Besides, the relative viability amounted to 1.09 in the test with IMD-0354 (0.1265 µM); 0.543 with IMD-0354 (0.4 µM); 0.111 with IMD-0354 (1.265 µM); 0.0465 with IMD-0354 (4 µM); 0.591 with CX-5461 + Alpelisib (first compound 0.01 µM); 0.529 with CX-5461 + Alpelisib (first compound 0.03162 µM). Besides, the relative viability in the test with CX-5461 + Alpelisib (first compound 0.1 µM) was found to be 0.33; with CX-5461 + Alpelisib (first compound 0.3162 µM) it was 0.507; in the test with CX-5461 + Alpelisib (first compound 1 µM), 0.234; in the test with IMD-0354 + Pemetrexed (first compound 0.04 µM), 0.18; with IMD-0354 + Pemetrexed (first compound 0.1265 µM), 0.181; in the test with IMD-0354 + Pemetrexed (first compound 0.4 µM) it was 0.0918. Further, the relative viability amounted to 0.0649 in the test with IMD-0354 + Pemetrexed (first compound 1.265 µM) and 0.0246 in the test with IMD-0354 + Pemetrexed (first compound 4 µM).
For HCC-827, the relative viability with CX-5461 (0.01 µM) was 1.02; with CX-5461 (0.03162 µM), 1.02; with CX-5461 (0.1 µM) it was 1.03; with CX-5461 (0.3162 µM) it was 1.01; with CX-5461 (1 µM), 0.933; in the test with IMD-0354 (0.04 µM), 1.06. Besides, the relative viability with IMD-0354 (0.1265 µM) amounted to 1.05; with IMD-0354 (0.4 µM) it was 0.736; with IMD-0354 (1.265 µM), 0.439; with IMD-0354 (4 µM), 0.258; in the test with CX-5461 + Alpelisib (first compound 0.01 µM), 0.996; in the test with CX-5461 + Alpelisib (first compound 0.03162 µM), 0.998. Moreover, the relative viability in the test with CX-5461 + Alpelisib (first compound 0.1 µM) was found to be 1.02; with CX-5461 + Alpelisib (first compound 0.3162 µM), 0.977; with CX-5461 + Alpelisib (first compound 1 µM), 0.989; with IMD-0354 + Pemetrexed (first compound 0.04 µM) it was 0.26; with IMD-0354 + Pemetrexed (first compound 0.1265 µM) it was 0.267; in the test with IMD-0354 + Pemetrexed (first compound 0.4 µM), 0.243. The relative viability with IMD-0354 + Pemetrexed (first compound 1.265 µM) came out at 0.19; with IMD-0354 + Pemetrexed (first compound 4 µM) it was 0.163.
Consider HOP-62, for which the relative viability with CX-5461 (0.01 µM) turned out to be 1.02; with CX-5461 (0.03162 µM) it was 1.05; with CX-5461 (0.1 µM), 1.08; in the test with CX-5461 (0.3162 µM), 0.893; with CX-5461 (1 µM), 0.899; in the test with IMD-0354 (0.04 µM), 1.03. For the same cell line, the relative viability came out at 1.08 with IMD-0354 (0.1265 µM); 0.639 with IMD-0354 (0.4 µM); 0.38 with IMD-0354 (1.265 µM); 0.13 with IMD-0354 (4 µM); 1.12 in the test with CX-5461 + Alpelisib (first compound 0.01 µM); 1.09 with CX-5461 + Alpelisib (first compound 0.03162 µM). The relative viability with CX-5461 + Alpelisib (first compound 0.1 µM) was determined as 1; with CX-5461 + Alpelisib (first compound 0.3162 µM), 1.35; in the test with CX-5461 + Alpelisib (first compound 1 µM), 1.05; with IMD-0354 + Pemetrexed (first compound 0.04 µM), 0.348; in the test with IMD-0354 + Pemetrexed (first compound 0.1265 µM), 0.308; with IMD-0354 + Pemetrexed (first compound 0.4 µM), 0.268. The relative viability with IMD-0354 + Pemetrexed (first compound 1.265 µM) came out at 0.141; with IMD-0354 + Pemetrexed (first compound 4 µM), 0.0739.
As to LC-2-ad, the relative viability with CX-5461 (0.01 µM) stood at 0.981; in the test with CX-5461 (0.03162 µM), 1.02; with CX-5461 (0.1 µM) it was 0.955; in the test with CX-5461 (0.3162 µM), 0.978; with CX-5461 (1 µM) it was 0.749; with IMD-0354 (0.04 µM) it was 0.948. The relative viability in the test with IMD-0354 (0.1265 µM) was found to be 0.976; in the test with IMD-0354 (0.4 µM), 0.579; in the test with IMD-0354 (1.265 µM) it was 0.193; with IMD-0354 (4 µM), 0.17; with CX-5461 + Alpelisib (first compound 0.01 µM), 0.885; in the test with CX-5461 + Alpelisib (first compound 0.03162 µM), 0.9. The relative viability with CX-5461 + Alpelisib (first compound 0.1 µM) was 0.805; with CX-5461 + Alpelisib (first compound 0.3162 µM), 0.981; with CX-5461 + Alpelisib (first compound 1 µM) it was 0.561; in the test with IMD-0354 + Pemetrexed (first compound 0.04 µM) it was 0.29; with IMD-0354 + Pemetrexed (first compound 0.1265 µM), 0.268; with IMD-0354 + Pemetrexed (first compound 0.4 µM), 0.276. Besides, the relative viability in the test with IMD-0354 + Pemetrexed (first compound 1.265 µM) came to 0.189; with IMD-0354 + Pemetrexed (first compound 4 µM) it was 0.145.
Take LCLC-97TM1: the relative viability is 0.881 with CX-5461 (0.01 µM); 1.14 in the test with CX-5461 (0.03162 µM); 0.992 with CX-5461 (0.1 µM); 0.746 with CX-5461 (1 µM); 0.97 with IMD-0354 (0.04 µM); 0.938 with IMD-0354 (0.1265 µM). Besides, the relative viability with IMD-0354 (0.4 µM) was 0.639; with IMD-0354 (1.265 µM), 0.384; in the test with IMD-0354 (4 µM), 0.128; with CX-5461 + Alpelisib (first compound 0.01 µM), 0.233; in the test with CX-5461 + Alpelisib (first compound 0.03162 µM), 0.269; with CX-5461 + Alpelisib (first compound 0.1 µM), 0.217. Besides, the relative viability with CX-5461 + Alpelisib (first compound 1 µM) came out at 0.245; with IMD-0354 + Pemetrexed (first compound 0.04 µM), 0.202; with IMD-0354 + Pemetrexed (first compound 0.1265 µM), 0.162; with IMD-0354 + Pemetrexed (first compound 0.4 µM), 0.102; with IMD-0354 + Pemetrexed (first compound 1.265 µM) it was 0.0974; with IMD-0354 + Pemetrexed (first compound 4 µM), 0.0756.

The values above are taken from the supplement of paper PMC10307832.
